Reference: PubChem BioAssay (NCI)
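Following 48 hours of exposure in 96-well plates, responses at five concentrations were used to interpolate endpoints linearly. At the GI50, growth is halved. The concentration for full growth arrest is given as TGI.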 Where a SMILES comes first, the peptide text is derived from it. The star is where a group is joined. Boc = CC(C)(C)OC(=O)*; tBu = CC(C)(C)*

Legend:
Assay in all cases: DTP human tumour cell line panel, 48 h
[1] = tested on: HL-60(TB) leukemia
[2] = tested on: LOX IMVI melanoma
[3] = tested on: MDA-MB-435
[4] = tested on: NCI-H226 lung
[5] = tested on: OVCAR-5 ovarian
[6] = tested on: PC-3 prostate
[7] = tested on: RXF 393 renal
[8] = tested on: SK-MEL-2 melanoma
[9] = tested on: SK-OV-3 ovarian
[10] = tested on: SW-620 colon

| Structure (SMILES) | TGI [1] [µM] | TGI [2] [µM] | TGI [3] [µM] | TGI [4] [µM] | TGI [5] [µM] | TGI [6] [µM] | TGI [7] [µM] | TGI [8] [µM] | TGI [9] [µM] | TGI [10] [µM] | GI50 [1] [µM] | GI50 [2] [µM] | GI50 [3] [µM] | GI50 [4] [µM] | GI50 [5] [µM] | GI50 [6] [µM] | GI50 [7] [µM] | GI50 [8] [µM] | GI50 [9] [µM] | GI50 [10] [µM] |
| --- | --- | --- | --- | --- | --- | --- | --- | --- | --- | --- | --- | --- | --- | --- | --- | --- | --- | --- | --- | --- |
| CCCCC1Cc2cc(OC)ccc2-c2n1c1cc(OC)ccc1[n+]2C (stereo not given) (tested in a mixture with another compound) | 1.71 | 14.3 | 3.79 | 24.2 | 68.2 | 30.4 | 45.8 | 13 | 54.1 | > 55.5 |  |  |  |  |  |  |  |  |  |  |
| Cc1cc(C)nc(NC(=S)Nc2ccc(Cl)cc2)c1 | > 100 | > 100 | > 100 | > 100 | > 100 | > 100 | > 100 | > 100 | > 100 | > 100 |  |  |  |  |  |  |  |  |  |  |
| CC(=O)O[C@H]1C[C@H]2[C@@H]([C@H](OC(C)=O)C[C@@H]3CC4(CC[C@@]32C)OOC2(CCCCC2)OO4)[C@@H]2CC[C@H]([C@H](C)CCC(=O)O)[C@@]12C | 15.1 | 15.8 | 18.9 | 31.6 | 29.8 | 22.2 | 31.3 | 26.5 | 26.9 | 30 |  |  |  |  |  |  |  |  |  |  |
| CCN(CC)C(=S)SSCCO | 8.96 | 46.3 | 31.7 | > 100 | 31.5 | 28.1 | 34.8 | 39.6 | > 100 | 26.5 | 2.17 | 19.9 | 15.6 | > 100 | 17.7 | 14.9 | 19.4 | 19.9 | 73.9 | 13.6 |
| CN(CCCNC(=O)c1c2ccc3ccccc3c2nn1C)CCCNC(=O)c1c2ccc3ccccc3c2nn1C | 29.8 | 9.18 | 6.09 | 31.1 | 25.4 | 27.5 | 20 | 13.3 | 28.4 | 21.3 |  |  |  |  |  |  |  |  |  |  |
| COc1cccc(Nc2nc(NS(=O)(=O)c3cc(C)c(Cl)cc3S)n[nH]2)c1 | > 100 | > 100 | > 100 | > 100 | > 100 | > 100 | > 100 | > 100 | > 100 | > 100 |  |  |  |  |  |  |  |  |  |  |
| O=c1[nH]c(=S)[nH]c2c(C3OC(CO)C(O)C3O)nsc12 (stereo not given) | > 100 | > 100 | > 100 | > 100 | > 100 | > 100 | > 100 | > 100 | > 100 | > 100 |  |  |  |  |  |  |  |  |  |  |
| CCOc1cc2c(cc1O)CC[C@@H]1[C@@H]2CC[C@]2(C)[C@@H](O)CC[C@@H]12 | 0.352 | 21 | 0.0761 | 3.95 | 98.2 | 40.8 | 0.816 | 64.8 | 77.3 | > 100 |  |  |  |  |  |  |  |  |  |  |
| CC(=O)N1c2ccccc2[C@H]2CCc3c([nH]c4ccccc34)[C@H]21 | 34.2 | 31.8 | 42.5 | 36.7 | > 100 | > 100 | 28.4 | 74.1 | > 100 | 37.3 |  |  |  |  |  |  |  |  |  |  |
| COC(=O)[C@]1(C)[C@H]2C[C@H]3O[C@H]4[C@H](O)[C@@H](O)OC(CC(O)C(C5=CC(=O)OC5)C(C5=CC(=O)OC5)C(O)CC56CCCCC7[C@@H](C)[C@H](C[C@H]8[C@](C)(C(=O)OC)[C@H](O)CC[C@]78C)O[C@H]([C@@H](O)[C@H](O)O5)[C@H]6O)(CCCCC([C@@H]3C)[C@]2(C)CC[C@@H]1O)[C@H]4O (stereo not given in full) | 0.348 | 1.17 | 1.1 | 5.02 | 3.14 | 0.449 | 0.264 | 0.643 | 0.735 | 1.78 |  |  |  |  |  |  |  |  |  |  |
| Clc1cccc2[nH]ncc12 | > 100 | > 100 | > 100 | > 100 | > 100 | > 100 | > 100 | > 100 | > 100 | > 100 |  |  |  |  |  |  |  |  |  |  |
| O=C(O)Cc1ccc(Oc2nc3ccccc3nc2-c2ccccc2)cc1 | > 100 | > 100 | > 100 | > 100 | > 100 | > 100 | 98.2 | > 100 | > 100 | > 100 |  |  |  |  |  |  |  |  |  |  |
| Clc1ccc(Cn2cc(/C=N/n3cnnc3)c3ccccc32)cc1 | > 100 | > 100 | > 100 | 4.14 | 42.5 | > 100 | 46.8 | 82.9 | > 100 | > 100 |  |  |  |  |  |  |  |  |  |  |
| O/N=C1\CSc2ccccc2C1 | > 100 | > 100 | > 100 | > 100 | > 100 | > 100 | > 100 | > 100 | > 100 | > 100 |  |  |  |  |  |  |  |  |  |  |
| CCOP(=O)(/C=C/n1cnc2c(=O)n(C(C)=O)c(N)nc21)OCC | > 100 | > 100 | > 100 | > 100 | > 100 | > 100 | > 100 | > 100 | > 100 | > 100 |  |  |  |  |  |  |  |  |  |  |
| CCOP(=O)(/C=C\n1ccc(=O)[nH]c1=O)OCC | > 100 | > 100 | > 100 | > 100 | > 100 | > 100 | > 100 | > 100 | > 100 | > 100 |  |  |  |  |  |  |  |  |  |  |
| CCOC(=O)C(C)(Cc1ccc(O)cn1)NC(=O)c1ccccc1 (stereo not given) | > 100 | > 100 | > 100 | > 100 | > 100 | > 100 | > 100 | > 100 | > 100 | > 100 |  |  |  |  |  |  |  |  |  |  |
| Cc1cc(NS(=O)(=O)c2ccc(NC(=O)c3ccc4nc5ccccc5c(Nc5ccc(S(=O)(=O)Nc6cc(C)on6)cc5)c4c3)cc2)no1 | > 50 | > 50 | > 50 | > 50 | > 50 | > 50 | > 50 | > 50 | > 50 | > 50 |  |  |  |  |  |  |  |  |  |  |
| Cc1ccc(C=C(C(=O)O)C(=O)O)o1 | > 100 | > 100 | > 100 | > 100 | > 100 | > 100 | > 100 | > 100 | > 100 | > 100 |  |  |  |  |  |  |  |  |  |  |
| O=C(O)c1ccccc1CC(Cc1ccccc1)C(=O)O (stereo not given) | > 100 | > 100 | > 100 | > 100 | > 100 | > 100 | > 100 | > 100 | > 100 | > 100 |  |  |  |  |  |  |  |  |  |  |
| CC(C)=NNc1ncnc2nc[nH]c12 | > 72.5 | > 100 | > 100 | 97 | > 48.4 | > 100 | > 100 | > 67.8 | > 58 | > 100 |  |  |  |  |  |  |  |  |  |  |
| CC(OC(C)(C)C)C(NC(=O)C(N)CCCCNC(=O)OC(C)(C)C)C(=O)NC(Cc1ccccc1)C(=O)O (stereo not given) (H-Lys(Boc)-Thr(tBu)-Phe-OH; configuration not given here) | > 100 | > 100 | > 100 | > 100 | > 100 | > 100 | > 100 | > 100 | > 100 | > 100 |  |  |  |  |  |  |  |  |  |  |
| Nc1nc2c(c(=O)[nH]1)NC(CCNc1ccc(C(=O)O)cc1)CN2 (stereo not given) | > 100 | > 100 | > 100 | > 100 | > 100 | > 100 | > 100 | > 100 | > 100 | > 100 |  |  |  |  |  |  |  |  |  |  |
| O=S(=O)(c1ccc2ccccc2c1)N1CCN(S(=O)(=O)c2ccc3ccccc3c2)CC1 | > 100 | > 100 | > 100 | > 100 | > 100 | > 100 | > 100 | > 100 | > 100 | > 100 |  |  |  |  |  |  |  |  |  |  |
